Source: patent US7566712B2, “Biaryl piperazinyl-pyridine analogues” (Neurogen Corporation, priority 2003, dated 2009)

Target: T1, human capsaicin receptor (Homo sapiens, UniProt Q8NER1)
T1 construct: pBK-CMV expression construct encoding the full length human capsaicin receptor; expressed in transfected cells
Test: Calcium mobilization assay, determination of antagonist activity (Example 6)
Assay type: cell-based
Settings: Table II; IC50 determined as described in Example 6 (antagonist activity, calcium mobilization)
Method in brief: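 HEK293 clonal lines stably expressing full-length human capsaicin receptor, loaded with Fluo-3 AM in KRH buffer pH 7.4, 1–2 h at 37 °C. Compounds (1–5 μM final) preincubated 0.5–6 h at room temperature, then capsaicin at its EC50 added. FLIPR/Fluoroskan calcium signal; IC50 as 50% decrease of capsaicin response.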

T1 sequence (Q8NER1 whole entry): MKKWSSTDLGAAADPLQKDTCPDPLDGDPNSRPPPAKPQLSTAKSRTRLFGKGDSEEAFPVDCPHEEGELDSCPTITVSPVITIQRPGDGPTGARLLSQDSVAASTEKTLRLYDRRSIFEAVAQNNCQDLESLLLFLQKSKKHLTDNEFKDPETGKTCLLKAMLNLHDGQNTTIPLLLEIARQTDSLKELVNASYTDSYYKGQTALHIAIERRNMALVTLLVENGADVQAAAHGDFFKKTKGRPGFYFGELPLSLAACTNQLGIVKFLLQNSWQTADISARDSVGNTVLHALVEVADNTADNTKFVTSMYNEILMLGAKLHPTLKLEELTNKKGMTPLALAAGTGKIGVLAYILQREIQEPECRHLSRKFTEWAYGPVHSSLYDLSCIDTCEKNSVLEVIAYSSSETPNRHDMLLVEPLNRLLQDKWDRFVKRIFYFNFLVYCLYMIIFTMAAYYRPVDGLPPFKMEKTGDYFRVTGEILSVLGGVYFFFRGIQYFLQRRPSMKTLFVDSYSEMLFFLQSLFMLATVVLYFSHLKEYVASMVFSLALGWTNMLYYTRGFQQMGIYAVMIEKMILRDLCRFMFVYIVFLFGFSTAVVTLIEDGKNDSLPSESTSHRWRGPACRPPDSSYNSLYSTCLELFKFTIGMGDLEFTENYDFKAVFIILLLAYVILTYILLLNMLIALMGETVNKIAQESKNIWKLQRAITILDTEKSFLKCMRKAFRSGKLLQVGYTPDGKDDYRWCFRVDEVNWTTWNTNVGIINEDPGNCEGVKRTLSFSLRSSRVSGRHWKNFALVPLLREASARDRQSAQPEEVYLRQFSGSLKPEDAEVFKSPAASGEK

Compound | IC50 [nM]
C[C@@H]1CN(c2ccccc2F)CCN1c1cc(-c2ccc(F)c(Cl)c2)nc(N2CCOCC2)n1 [Example 991, 4-{4-(3-chloro-4-fluorophenyl)-6-[(2R)-4-(2-fluorophenyl)-2-methylpiperazin-1-yl]pyrimidin-2-yl}morpholine] | ≤ 1000
Cc1ccc(-c2cc(N3CCN(c4nccnc4Cl)C[C@H]3C)nc(N3CCC[C@@H]3C)n2)cc1F [Example 992, 4-[(2R)-4-(3-chloropyrazin-2-yl)-2-methylpiperazin-1-yl]-6-(3-fluoro-4-methylphenyl)-2-[(2S)-2-methylpyrrolidin-1-yl]pyrimidine] | ≤ 1000
Cc1ccc(-c2cc(N3CCN(c4nccnc4Cl)C[C@H]3C)nc(N3CCOCC3)n2)cc1F [Example 993, 4-[4-[(2R)-4-(3-chloropyrazin-2-yl)-2-methylpiperazin-1-yl]-6-(3-fluoro-4-methylphenyl)pyrimidin-2-yl]morpholine] | ≤ 1000
Cc1ccc(-c2cc(N3CCN(c4ncccc4Cl)C[C@H]3C)nc(N3CCC[C@@H]3C)n2)cc1F [Example 994, 4-[(2R)-4-(3-chloropyridin-2-yl)-2-methylpiperazin-1-yl]-6-(3-fluoro-4-methylphenyl)-2-[(2S)-2-methylpyrrolidin-1-yl]pyrimidine] | ≤ 1000
C[C@@H]1CN(c2ncccc2C(F)(F)F)CCN1c1cc(-c2ccc(F)c(F)c2)nc(N2CCC[C@@H]2C)n1 [Example 995, 4-(3,4-difluorophenyl)-2-[(2S)-2-methylpyrrolidin-1-yl]-6-{(2R)-2-methyl-4-[3-(trifluoromethyl)pyridin-2-yl]piperazin-1-yl}pyrimidine] | ≤ 1000
CC1CCCN1c1nc(-c2ccc(F)c(Cl)c2)cc(N2CCN(c3ncccn3)CC2)n1 (stereo not shown) [Example 996, 4-(3-chloro-4-fluorophenyl)-2-(2-methylpyrrolidin-1-yl)-6-(4-pyrimidin-2-ylpiperazin-1-yl)pyrimidine] | ≤ 1000
Cc1ccc(-c2cc(N3CCN(c4ncccc4Cl)C[C@H]3C)nc(N3CCCC3)n2)cc1Cl [Example 997, 4-(3-chloro-4-methylphenyl)-6-[(2R)-4-(3-chloropyridin-2-yl)-2-methylpiperazin-1-yl]-2-pyrrolidin-1-ylpyrimidine] | ≤ 1000
Cc1ccc(-c2cc(N3CCN(c4ncccc4Cl)C[C@H]3C)nc(N3CCOCC3)n2)cc1Cl [Example 998, 4-{4-(3-chloro-4-methylphenyl)-6-[(2R)-4-(3-chloropyridin-2-yl)-2-methylpiperazin-1-yl]pyrimidin-2-yl}morpholine] | ≤ 1000
Cc1ccc(-c2cc(N3CCN(c4ncccc4Cl)C[C@H]3C)nc(N3CCC[C@@H]3C)n2)cc1Cl [Example 999, 4-(3-ohloro-4-methylphenyl)-6-[(2R)-4-(3-chloropyridin-2-yl)-2-methylpiperazin-1-yl]-2-[(2S)-2-methylpyrrolidin-1-yl]pyrimidine] | ≤ 1000
C[C@@H]1CN(c2ncccc2Cl)CCN1c1cc(-c2ccc(F)c(Cl)c2)nc(N2CCOC[C@@H]2C)n1 [Example 1000, (3S)-4-{4-(3-ohloro-4-fluorophenyl)-6-[(2R)-4-(3-chloropyridin-2-yl)-2-methylpiperazin-1-yl]pyrimidin-2-yl}-3-methylmorpholine] | ≤ 1000
Cc1ccnnc1N1CCN(c2cc(-c3ccc(F)c(Cl)c3)nc(N3CCCC3C)n2)CC1 (stereo not shown) [Example 1001, 3-{4-[6-(3-ohloro-4-fluorophenyl)-2-(2-methylpyrrolidin-1-yl)pyrimidin-4-yl]piperazin-1-yl}-4-methylpyridazine] | ≤ 1000
CC1CCCN1c1nc(-c2ccc(F)c(Cl)c2)cc(N2CCN(c3ncc(Br)cn3)CC2)n1 (stereo not shown) [Example 1002, 4-[4-(5-bromopyrimidin-2-yl)piperazin-1-yl]-6-(3-chloro-4-fluorophenyl)-2-(2-methylpyrrolidin-1-yl)pyrimidine] | ≤ 1000
C[C@@H]1CN(c2nccnc2Cl)CCN1c1cc(-c2ccc(F)c(Cl)c2)nc(N2CCOC[C@@H]2C)n1 [Example 1003, (3S)-4-{4-(3-chloro-4-fluorophenyl)-6-[(2R)-4-(3-chloropyrazin-2-yl)-2-methylpiperazin-1-yl]pyrimidin-2-yl}-3-methylmorpholine] | ≤ 1000
C[C@@H]1CN(c2ncccc2F)CCN1c1cc(-c2ccc(F)c(Cl)c2)nc(N2CCOC[C@@H]2C)n1 [Example 1004, (3S)-4-{4-(3-chloro-4-fluorophenyl)-6-[(2R)-4-(3-fluoropyridin-2-yl)-2-methylpiperaztn-1-yl]pyrimidin-2-yl}-3-methylmorpholine] | ≤ 1000
C[C@H]1CN(c2ncccc2Cl)CCN1c1cc(-c2ccc(F)c(Cl)c2)nc(N2CCOC[C@@H]2C)n1 [Example 1005, (3S)-4-{4-(3-chloro-4-fluorophenyl)-6-[(2S)-4-(3-chloropyridin-2-yl)-2-methylpiperazin-1-yl]pyrimidin-2-yl}-3-methylmorpholine] | ≤ 1000
C[C@@H]1CN(c2ncccc2F)CCN1c1cc(-c2ccc(F)c(F)c2)nc(N2CCOC[C@@H]2C)n1 [Example 1006, (3S)-4-{4-(3,4-difluorophenyl)-6-[(2R)-4-(3-fluoropyridin-2-yl)-2-methylpiperazin-1-yl]pyrimidin-2-yl}-3-methylmorpholine] | ≤ 1000
CC1CCCN1c1nc(-c2ccc(F)c(Cl)c2)cc(N2CCN(c3ncc(C#N)cn3)CC2)n1 (stereo not shown) [Example 1009, 2-{4-[6-(3-chloro-4-fluorophenyl)-2-(2-methylpyrrolidin-1-yl)pyrimidin-4-yl]piperazin-1-yl}pyrimidine-5-carbonitrile] | ≤ 1000
CC1CCCN1c1nc(-c2ccc(F)c(Cl)c2)cc(N2CCN(c3ncncc3Cl)CC2)n1 (stereo not shown) [Example 1010, 4-(3-chloro-4-fluorophenyl)-6-[4-(5-chloropyrimidin-4-yl)piperazin-1-yl]-2-(2-methylpyrrolidin-1-yl)pyrimidine] | ≤ 1000
CC1CCCN1c1nc(-c2ccc(F)cc2)cc(N2CCN(c3nc(Cl)ccc3Cl)C[C@H]2C)n1 (stereo partly shown) [Example 1011, 4-[4-(3,6-dichloropyridin-2-yl)-2-methylpiperazin-1-yl]-6-(4-fluorophenyi)-2-(2-methylpyrrolidin-1-yl)pyrimidine] | ≤ 1000
CNc1ccc(Cl)c(N2CCN(c3cc(-c4ccc(F)cc4)nc(N4CCCC4C)n3)[C@H](C)C2)n1 (stereo partly shown) [Example 1012, 5-chloro-6-{4-[6-(4-fiuorophenyl)-2-(2-methylpyrrolidin-1-yl)pyrimidin-4-yl]-3-methylpiperazin-1-yl}-N-methylpyridin-2-amine] | ≤ 1000
CC1CCCN1c1nc(-c2ccc(F)cc2)cc(N2CCN(c3ncncc3Cl)C[C@H]2C)n1 (stereo partly drawn) [Example 1013, 4-[(2R)-4-(5-chloropyrimidin-4-yl)-2-methylpiperazin-1-yl]-6-(4-fluorophenyl)-2-(2-methylpyrrolidin-1-yl)pyrimidine] | ≤ 1000
Cc1cccnc1N1CCN(c2cc(-c3ccc(F)c(Cl)c3)nc(N(C)[C@@H](C)CO)n2)CC1 [Example 1016, (2S)-2-[{4-(3-chloro-4-fluorophenyl)-6-[4-(3-methylpyridin-2-yl)piperazin-1-yl]pyrimidin-2-yl}(methyl)amino]propan-1-ol] | ≤ 1000
